Source: PubChem BioAssay (NCI)
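Five compound concentrations were applied to cells in 96-well plates for 48 hours; endpoints were derived by simple linear interpolation of the resulting dose-response curve. TGI denotes the concentration required for complete inhibition of growth.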

Assays:
Test in all cases: NCI anticancer screen, dose series, 48 h
MCF7 breast = tested on: MCF7 breast
DU-145 prostate = tested on: DU-145 prostate
SF-268 CNS = tested on: SF-268 CNS
SNB-19 CNS = tested on: SNB-19 CNS
HL-60(TB) leukemia = tested on: HL-60(TB) leukemia
TK-10 renal = tested on: TK-10 renal
OVCAR-3 ovarian = tested on: OVCAR-3 ovarian
PC-3 prostate = tested on: PC-3 prostate
HCT-116 colon = tested on: HCT-116 colon
SK-MEL-28 melanoma = tested on: SK-MEL-28 melanoma
MOLT-4 leukemia = tested on: MOLT-4 leukemia
MALME-3M melanoma = tested on: MALME-3M melanoma
HOP-92 NSCLC = tested on: HOP-92 NSCLC
EKVX NSCLC = tested on: EKVX NSCLC
UO-31 renal = tested on: UO-31 renal
RXF 393 renal = tested on: RXF 393 renal
UACC-62 melanoma = tested on: UACC-62 melanoma
SK-OV-3 ovarian = tested on: SK-OV-3 ovarian
KM12 colon = tested on: KM12 colon
MDA-MB-231 breast = tested on: MDA-MB-231 breast
NCI-H226 lung = tested on: NCI-H226 lung
OVCAR-8 ovarian = tested on: OVCAR-8 ovarian
HT29 colon = tested on: HT29 colon
NCI-H522 lung = tested on: NCI-H522 lung
A498 renal = tested on: A498 renal
LOX IMVI melanoma = tested on: LOX IMVI melanoma
NCI-H23 lung = tested on: NCI-H23 lung
MDA-N = tested on: MDA-N
HOP-62 NSCLC = tested on: HOP-62 NSCLC
SR leukemia = tested on: SR leukemia
SW-620 colon = tested on: SW-620 colon
HCT-15 colon = tested on: HCT-15 colon
786-0 renal = tested on: 786-0 renal
K-562 leukemia = tested on: K-562 leukemia
SF-539 CNS = tested on: SF-539 CNS
UACC-257 melanoma = tested on: UACC-257 melanoma
T-47D breast = tested on: T-47D breast
U251 CNS = tested on: U251 CNS
IGROV1 ovarian = tested on: IGROV1 ovarian
A549 NSCLC = tested on: A549 NSCLC
SK-MEL-2 melanoma = tested on: SK-MEL-2 melanoma
OVCAR-5 ovarian = tested on: OVCAR-5 ovarian
SN12C renal = tested on: SN12C renal
NCI/ADR-RES ovarian = tested on: NCI/ADR-RES ovarian
HS 578T breast = tested on: HS 578T breast
RPMI-8226 leukemia = tested on: RPMI-8226 leukemia
SK-MEL-5 melanoma = tested on: SK-MEL-5 melanoma
OVCAR-4 ovarian = tested on: OVCAR-4 ovarian
NCI-H460 lung = tested on: NCI-H460 lung
ACHN renal = tested on: ACHN renal
M14 melanoma = tested on: M14 melanoma
SNB-75 CNS = tested on: SNB-75 CNS
BT-549 breast = tested on: BT-549 breast
SF-295 CNS = tested on: SF-295 CNS
MDA-MB-435 = tested on: MDA-MB-435
CAKI-1 renal = tested on: CAKI-1 renal
COLO 205 colon = tested on: COLO 205 colon
HCC-2998 colon = tested on: HCC-2998 colon

N/C(=N\S(=O)(=O)c1cccc2nsnc12)Nc1ccc(Cl)cc1
TGI (MCF7 breast): > 100 µM
TGI (DU-145 prostate): > 100 µM
TGI (SF-268 CNS): > 100 µM
TGI (SNB-19 CNS): > 100 µM
TGI (HL-60(TB) leukemia): 78 µM
TGI (TK-10 renal): 62.8 µM
TGI (OVCAR-3 ovarian): > 100 µM
TGI (PC-3 prostate): 55 µM
TGI (HCT-116 colon): > 100 µM
TGI (SK-MEL-28 melanoma): 71.8 µM
TGI (MOLT-4 leukemia): > 100 µM
TGI (MALME-3M melanoma): 40.2 µM
TGI (HOP-92 NSCLC): 56.5 µM
TGI (EKVX NSCLC): 63.7 µM
TGI (UO-31 renal): > 100 µM
TGI (RXF 393 renal): > 100 µM
TGI (UACC-62 melanoma): 35.2 µM
TGI (SK-OV-3 ovarian): > 100 µM
TGI (KM12 colon): > 100 µM
TGI (MDA-MB-231 breast): 75.9 µM
TGI (NCI-H226 lung): > 100 µM
TGI (OVCAR-8 ovarian): > 100 µM
TGI (HT29 colon): > 100 µM
TGI (NCI-H522 lung): 25.7 µM
TGI (A498 renal): 59.5 µM
TGI (LOX IMVI melanoma): 85.8 µM
TGI (NCI-H23 lung): > 100 µM
TGI (MDA-N): > 100 µM
TGI (HOP-62 NSCLC): > 100 µM
TGI (SR leukemia): > 100 µM
TGI (SW-620 colon): > 100 µM
TGI (HCT-15 colon): > 100 µM
TGI (786-0 renal): > 100 µM
TGI (K-562 leukemia): > 100 µM
TGI (SF-539 CNS): > 100 µM
TGI (UACC-257 melanoma): 32.5 µM
TGI (T-47D breast): > 100 µM
TGI (U251 CNS): 77.1 µM
TGI (IGROV1 ovarian): > 100 µM
TGI (A549 NSCLC): > 100 µM
TGI (SK-MEL-2 melanoma): 26.3 µM
TGI (OVCAR-5 ovarian): > 100 µM
TGI (SN12C renal): > 100 µM
TGI (NCI/ADR-RES ovarian): > 100 µM
TGI (HS 578T breast): 68.9 µM
TGI (RPMI-8226 leukemia): > 100 µM
TGI (SK-MEL-5 melanoma): 31.2 µM
TGI (OVCAR-4 ovarian): > 100 µM
TGI (NCI-H460 lung): 67 µM
TGI (ACHN renal): > 100 µM
TGI (M14 melanoma): > 100 µM
TGI (SNB-75 CNS): > 100 µM
TGI (BT-549 breast): > 100 µM
TGI (SF-295 CNS): > 100 µM

O=C1c2cccnc2C(=O)C2C3C=CC(C3)C12 (stereo not given)
TGI (MCF7 breast): 15.4 µM
TGI (DU-145 prostate): 19.8 µM
TGI (SF-268 CNS): 24.3 µM
TGI (SNB-19 CNS): 34.3 µM
TGI (TK-10 renal): 31.9 µM
TGI (OVCAR-3 ovarian): 31.8 µM
TGI (PC-3 prostate): 21.8 µM
TGI (HCT-116 colon): 14 µM
TGI (SK-MEL-28 melanoma): 39.3 µM
TGI (MALME-3M melanoma): 29.5 µM
TGI (HOP-92 NSCLC): 27 µM
TGI (EKVX NSCLC): 28.8 µM
TGI (UO-31 renal): 28.1 µM
TGI (RXF 393 renal): 10.3 µM
TGI (UACC-62 melanoma): 9.94 µM
TGI (SK-OV-3 ovarian): 43.9 µM
TGI (KM12 colon): 32 µM
TGI (MDA-MB-231 breast): 9.97 µM
TGI (NCI-H226 lung): 32 µM
TGI (OVCAR-8 ovarian): 30 µM
TGI (HT29 colon): 60.9 µM
TGI (NCI-H522 lung): 13.8 µM
TGI (A498 renal): 44.7 µM
TGI (LOX IMVI melanoma): 15.7 µM
TGI (NCI-H23 lung): 58 µM
TGI (MDA-MB-435): 5.7 µM
TGI (MDA-N): 13.2 µM
TGI (HOP-62 NSCLC): 20.4 µM
TGI (SR leukemia): 6.65 µM
TGI (SW-620 colon): 28.2 µM
TGI (HCT-15 colon): 34.8 µM
TGI (786-0 renal): 24.2 µM
TGI (K-562 leukemia): 34.9 µM
TGI (SF-539 CNS): 13.4 µM
TGI (UACC-257 melanoma): 26.2 µM
TGI (T-47D breast): 13.2 µM
TGI (U251 CNS): 16.7 µM
TGI (IGROV1 ovarian): 24 µM
TGI (A549 NSCLC): 50.8 µM
TGI (SK-MEL-2 melanoma): 16.9 µM
TGI (OVCAR-5 ovarian): 35.8 µM
TGI (SN12C renal): 29.2 µM
TGI (NCI/ADR-RES ovarian): > 100 µM
TGI (HS 578T breast): 85.1 µM
TGI (CAKI-1 renal): 31.9 µM
TGI (RPMI-8226 leukemia): 8.97 µM
TGI (COLO 205 colon): 26.5 µM
TGI (SK-MEL-5 melanoma): 23.2 µM
TGI (OVCAR-4 ovarian): 21.7 µM
TGI (NCI-H460 lung): 15.6 µM
TGI (ACHN renal): 20.4 µM
TGI (M14 melanoma): 28 µM
TGI (HCC-2998 colon): 29.9 µM
TGI (SNB-75 CNS): 25.8 µM
TGI (BT-549 breast): 24 µM
TGI (SF-295 CNS): 26.6 µM
